In ChEMBL document CHEMBL4177567, “Antibiotic adjuvants - A strategy to unlock bacterial resistance to antibiotics” (Bioorg Med Chem Lett, 2017) one finds Ki and MIC data, which are given here for five compounds.

For one test, the target named is T1, Beta-lactamase 1 (Bacillus cereus, UniProt P00809).
T1 sequence (P00809 whole entry): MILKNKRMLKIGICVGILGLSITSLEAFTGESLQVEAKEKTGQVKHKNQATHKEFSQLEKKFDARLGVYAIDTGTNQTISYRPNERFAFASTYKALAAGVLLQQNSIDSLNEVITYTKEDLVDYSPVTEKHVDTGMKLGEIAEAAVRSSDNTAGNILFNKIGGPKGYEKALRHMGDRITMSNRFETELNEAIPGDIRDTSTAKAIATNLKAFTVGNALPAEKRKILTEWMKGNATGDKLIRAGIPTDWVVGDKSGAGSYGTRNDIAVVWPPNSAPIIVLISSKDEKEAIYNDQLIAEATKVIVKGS
In words: Inhibition of Bacillus cereus beta-lactamase […] using CENTA as substrate up to 30 mins by Lineweaver-Burk plot analysis.

Another test relates to Acinetobacter baumannii. In words: Antibacterial activity against Acinetobacter baumannii after 20 to 22 hrs by broth microdilution method. The format is functional. In general terms: Dilution methods test growth across graded concentrations, often in twofold steps.

SMILES strings stand for the structures. ≈ marks a conversion by molar mass, not a printed value.

Usually Ki stands for the dissociation constant of the complex between target and ligand, obtained from inhibition or displacement. Read a high Ki as lower affinity. `O=C(NCB(O)O)S(=O)(=O)c1ccnc(-c2nnn[nH]2)c1` had a Ki on Beta-lactamase 1 of 0.8 nM. On to `O=C(NCB(O)O)S(=O)(=O)c1cc(Cl)cc(-c2nnn[nH]2)c1`, for which the Ki at Beta-lactamase 1 came to 0.2 nM. `O=C(O)c1cccc(CS(=O)(=O)C(=O)NCB(O)O)c1` displayed a Ki at Beta-lactamase 1 of 1.3 nM. As a reminder, the MIC is the smallest concentration in the dilution series that meets the test's criterion for growth inhibition. In the test on Acinetobacter baumannii, `C[C@]1(COC(=O)Cc2ccc(O)c(O)c2)[C@H](C(=O)O)N2C(=O)/C(=C/c3ccccn3)[C@H]2S1(=O)=O` showed a minimal inhibitory concentration (MIC) of 2 µg/mL (≈ 4.09 µM). `O=C(NCB(O)O)S(=O)(=O)c1cc(-c2nnn[nH]2)cc(C(F)(F)F)c1` showed an inhibition constant Ki at Beta-lactamase 1 of 0.05 nM.
